Laboratory results published in ChEMBL document CHEMBL1152247, “Identification of novel inhibitors of extracellular signal-regulated kinase 2 based on the structure-based virtual screening” (Bioorg Med Chem Lett, 2008).

Key:
[1] = biological target: Mitogen-activated protein kinase 14 (Homo sapiens) (UniProt Q16539); assay: Inhibition of p38-alpha at 100 uM
[2] = biological target: T1, Mitogen-activated protein kinase 1 (Homo sapiens, UniProt P28482); assay: Inhibition of recombinant ERK2
[3] = biological target: T1, Mitogen-activated protein kinase 1; assay: Inhibition of recombinant ERK2 at 100 uM

T1 sequence (P28482 whole entry): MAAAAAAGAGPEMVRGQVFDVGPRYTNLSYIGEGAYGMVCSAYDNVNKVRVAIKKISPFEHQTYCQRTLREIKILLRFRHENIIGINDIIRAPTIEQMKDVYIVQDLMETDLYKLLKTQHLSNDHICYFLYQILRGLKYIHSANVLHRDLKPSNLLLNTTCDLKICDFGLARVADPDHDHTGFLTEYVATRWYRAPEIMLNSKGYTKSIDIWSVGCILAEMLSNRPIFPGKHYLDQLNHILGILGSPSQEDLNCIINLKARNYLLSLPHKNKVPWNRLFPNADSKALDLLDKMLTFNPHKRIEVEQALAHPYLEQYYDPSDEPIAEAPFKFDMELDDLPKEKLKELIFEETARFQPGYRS
Chain of Mitogen-activated protein kinase 14 (Homo sapiens) (Q16539 whole entry): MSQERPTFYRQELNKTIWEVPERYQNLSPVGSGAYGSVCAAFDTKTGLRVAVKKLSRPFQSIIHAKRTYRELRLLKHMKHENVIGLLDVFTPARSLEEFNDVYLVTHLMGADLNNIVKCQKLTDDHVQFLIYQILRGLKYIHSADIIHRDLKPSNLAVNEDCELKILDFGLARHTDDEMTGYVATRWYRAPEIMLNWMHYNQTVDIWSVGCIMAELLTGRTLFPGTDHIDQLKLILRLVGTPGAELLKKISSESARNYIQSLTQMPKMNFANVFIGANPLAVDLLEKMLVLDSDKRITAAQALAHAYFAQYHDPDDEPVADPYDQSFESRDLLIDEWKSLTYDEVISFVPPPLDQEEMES

| SMILES | inhibition [1] [%] | IC50 [2] [µM] | inhibition [3] [%] |
| --- | --- | --- | --- |
| O=C(Nc1nc(NC(=O)c2ccccc2)n(-c2ccccc2)n1)c1ccccc1 | 24.5 | 8.3 | 93.1 |
| O=C(/C=C/c1ccccc1)Nc1nc(NC(=O)c2ccccc2)nn1-c1ccccc1 | – | 25.6 | – |
| COc1ccccc1-c1c[nH]nc1-c1ccc(OCc2ccccc2F)cc1O | – | 27.4 | – |
| O=C(Nc1nc(NC(=O)c2ccco2)n(-c2ccccc2)n1)c1ccccc1 | – | 18.3 | – |

Continued, values first:

| inhibition [1] [%] | IC50 [2] [µM] | inhibition [3] [%] | SMILES |
| --- | --- | --- | --- |
| – | 23.7 | – | O=C1/C(=C/C=C/c2ccccc2)SC(=S)N1Cc1ccc2c(c1)OCO2 |
| 16.7 | 5.5 | 92.7 | O=C1/C(=C/c2ccc(O)cc2)SC(=S)N1Cc1ccccc1 |
| – | 14.3 | – | COc1cc(/C=C2\SC(=S)N(Cc3ccccc3)C2=O)ccc1O |
| 12.3 | 16.9 | 87.9 | Cc1ccc(COc2ccc(-c3n[nH]cc3-c3ccccc3)c(O)c2)cc1 |
